We go through one molecule from patent publication US20240050409A1, “Methods and Compositions for Treating Psychotic Disorders” (SOUND PHARMACEUTICALS INCORPORATED, priority 2014, published 2024).

This assay deals with NVHL rats. As to the kind of experiment: Prepulse inhibition of the acoustic startle response (PPI) in NVHL rats. Format: in vivo, Sprague-Dawley rats. The conditions noted are these: adult NVHL rats. As to the method: To assess whether juvenile oxidative stress leads to behavioral deficits, a behavioral paradigm was used for testing in both animal models and schizophrenia patients. Prepulse inhibition of the acoustic startle response (PPI) is a measure of sensorimotor gating that is reduced in patients (Geyer and Braff, 1987) and NVHL rats (Lipska et al., 1995). PPI was tested in adult sham (n=11), NAC-treated sham (n=12), NVHL (n=9), and NAC-treated NVHL rats (n=17). In addition to loss of PVI maturation and electrophysiological anomalies, developmental oxidative stress in juvenile NVHL rats can cause schizophrenia-relevant adult behavioral deficits.
The beneficial effect of NAC treatment includes a large postnatal treatment that starts prior to the lesion and stops once rats become young adults. For full translational value one determines whether NAC is efficacious when started at an age that corresponds to the time when prodromal stages can be identified in humans. In another set of rats, NAC was administered in the drinking water starting at P35, an age that in rats is equivalent to early adolescence. For PPI deficits was tested in adult SHAM (n=15), untreated NVHL (n=12), and NAC-treated NVHL rats (n=14).
Ebselen is a glutathione peroxidase (GPx) mimic (Muller et al., 1984) that induces GPx expression (Kil et al., 2007) and enhances GSH levels in neurons, replenishing GSH depleted by neurotoxic mechanisms (Pawlas and Malecki, 2007). PPI was tested in adult vehicle-treated SHAM (n=10), Ebselen-treated SHAM (n=7), vehicle-treated NVHL (n=8), and Ebselen-treated NVHL rats (n=9), and Ebselen treatment during adolescence reversed PPI deficits in NVHL rats (as shown in FIG. 15D).
In another group of rats, the effects of the NADPH oxidase inhibitor Apocynin was assessed while delivering through juvenile and adolescent stages. PPI was tested in adult vehicle-treated SHAM (n=10), apocynin-treated SHAM (n=11), vehicle treated NHVL (n=7), and apocynin-treated NVHL (n=5). As illustrated in FIG. 15C a reversal of PPI deficits was observed.
Antioxidant pretreatment regimen: NAC (BioAdvantexPharma, Mississauga, Ontario, Canada) was administered in the drinking water at 900 mg/l. NAC treatment started at P5 or at P35, and previous work in mice has shown that NAC consumed by the dam is transmitted to the pups through her milk (das Neves Duarte et al., 2012). NAC treatment ended at P50. Fresh solutions were prepared every 2-3 days. Ebselen (Sound Pharmaceuticals Inc., Seattle, WA) was administered i.p. 5 days a week starting at P35 until the day of PPI testing (P60). Stock ebselen solution (20 mg/ml DMSO, frozen aliquots) was diluted 1:5 in sterile water and administered at a dose of 10 mg/kg. Control animals received an equivalent concentration of DMSO diluted 1:5 in water. Apocynin (Sigma-Aldrich, St. Louis, MO) was administered in the drinking water at a target dose of 100 mg/kg (Nwokocha et al., 2013). Prior to weaning at P21, drinking water contained a dose of 2 g apocynin per 0.5 1 of water, to ensure delivery through the dam's milk. Apocynin concentration was lowered after weaning to 750 mg/1 to best approximate the target dose. Treatment lasted from P5 to P50 with fresh solutions prepared every other day.
Prepulse inhibition: Starting at P60, both male and female rats were tested for PPI, as described previously (Feleder et al., 2010). As PPI deficits in NVHL rats are most evident when rats are challenged with apomorphine (Lipska et al., 1995), we injected apomorphine (0.1 mg/kg, i.p.) immediately prior to the PPI test session. Rats were placed in a sound- attenuated startle chamber (San Diego Instruments, San Diego, CA) with a 70 dB background white noise. After a 5 min adaptation period, the PPI test was initiated with pseudorandom trials every 15 to 25 seconds. Either pulse (120 dB), prepulse (75 dB, 80 dB, or 85 dB), no pulse or prepulse +pulse were delivered. […]

“Also recorded” adds a separate entry of the source.

Take `CC(=O)N[C@@H](CS)C(=O)O` [NAC, N-acetyl cysteine]: the “effect on PPI deficit” value is, setting by setting: (apomorphine 0.1 mg/kg i.p. challenge, juvenile treatment P5 to P50, drinking water) “prevented; also recorded: completely reversed”; (adolescent treatment P35 to P50, drinking water, tested P61) “prevented”.
